The values that follow come from patent US4966891A, “Fluorocytidine derivatives” (priority 1987, dated 1990).

Data set [1] concerns Sarcoma 180. The data set is described as follows: Antitumor testing against Sarcoma 180 (oral, s.c. implanted). The class given is in vivo, mice. To be noted: Mus musculus, 336 h, day 14, read-out: Inhibition of tumor growth; for inhibition in vivo at 1100 µmol/kg: 1.1 mmole/kg/day × 7, p.o.; for inhibition in vivo at 2200 µmol/kg: 2.2 mmole/kg/day × 7, p.o.; for inhibition in vivo at 1500 µmol/kg: 1.5 mmole/kg/day × 7, p.o.; for inhibition in vivo at 1400 µmol/kg: 1.4 mmole/kg/day × 7, p.o.; for inhibition in vivo at 2700 µmol/kg: 2.7 mmole/kg/day × 7, p.o.; for inhibition in vivo at 500 µmol/kg: 0.5 mmole/kg/day × 7, p.o. Here is the method: (§1) Sarcoma 180 cells (2×10^6 cells) were implanted subcutaneously into mice (20-22 g) on day 0. The compounds of the present invention were administered daily from day 1 through 7 orally. The animals were sacrificed on day 14 and tumors were excised and weighed. The percent inhibition of tumor growth given in Table 1 below was calculated from the formula:
(§2) T=weight of the tumors from the treated group, C=weight of the tumors from the control group.

Data set [2] can be described thus: in vivo. The settings on record: mouse, po.
The conditions of data set [3]: words, general knowledge; cited from earlier work.
Data set [4] has as its system Meth A fibrosarcoma. The data set is described as follows: Comparative study on antitumor activity against Meth A fibrosarcoma with 5'-deoxy-5-fluorouridine. Type of data set: in vivo, mice. How it is done: (§3) Meth A fibrosarcoma cells (2×10^5 cells) were implanted subcutaneously into mice (21-22 g). The testing against Meth A fibrosarcoma and the calculation of the percent inhibition of tumor growth were effected according to a manner analogous to that of the testing against Sarcoma 180.
(§4) The comparative study on antitumor activity of a representative compound (Example 3) of the present invention with 5'-deoxy-5-fluorouridine was performed according to a manner analogous to that of the antitumor testing against Meth A fibrosarcoma.

Data set [5] can be described thus: Fecal observation on Day 8 and toxicity in the comparative Meth A study. The settings on record: for diarrhea: mouse, in vivo. Here is the method:
as §4

Data set [6] deals with Sarcoma 180. The data set is described as follows: Comparative antitumor testing against Sarcoma 180. Type of data set: in vivo, murine / mice. The settings on record: p.o. daily × 7, Day 14. An excerpt: (§5) Mice were inoculated subcutaneously with Sarcoma 180, Meth A fibrosarcoma and UV 2237 fibrosarcoma, respectively at Day 0. The mice were then orally administered with the compounds daily for 7 times from Day 1. The efficacy
(§6) was expressed as therapeutic indices (EDmax /ED50) measured at Day 14 after the tumor inoculation, where EDmax is a dose showing maximum inhibition of tumor growth.

In data set [7] the test system is Meth A fibrosarcoma. The data set is described as follows: Comparative antitumor testing against Meth A fibrosarcoma. The settings on record: p.o. daily × 7, Day 14. The class given is in vivo, murine / mice.
Excerpt: as §5, §6

In data set [8] the test system is UV 2237 fibrosarcoma. The data set is described as follows: Comparative antitumor testing against UV 2237 fibrosarcoma. Type of data set: in vivo, murine / mice. The settings on record: p.o. daily × 7, Day 14.
Excerpt: as §5, §6

Data set [9] concerns Lewis lung carcinoma. To be noted: mouse, in vivo, po.
Procedure: Mice were inoculated subcutaneously with Lewis lung carcinoma (10^6 cells) on day 0.
The compounds were administered daily for 14 times from day 1 by the p.o. route. The effective dose (ED50) at which tumor growth was inhibited by 50%, and toxic doses were determined.
In data set [10] the test system is Meth A fibrosarcoma. The data set is described as follows: Antitumor testing against Meth A fibrosarcoma (oral, s.c. implanted). To be noted: Mus musculus, read-out: Inhibition of tumor growth; for inhibition in vivo at 1500 µmol/kg: 1.5 mmole/kg/day × 7, p.o.; for inhibition in vivo at 3000 µmol/kg: 3.0 mmole/kg/day × 7, p.o. The class given is in vivo, mice. Here is the method:
as §1, §2, §3

What is called LD50 is the dose at which mortality reaches 50%. Read a high LD50 as lower toxicity.

Bounds are passed on as bounds.

Take `CCCCCCCC(=O)Nc1nc(=O)n([C@@H]2O[C@H](C)[C@@H](O)[C@H]2O)cc1F` [Example 5, 5'-deoxy-5-fluoro-N^4-octanoylcytidine]: in data set [1], the inhibition in vivo at 1100 µmol/kg was 62% and the inhibition in vivo at 2200 µmol/kg is 82%. The LD50 in data set [2] is greater than 2000 mg/kg.
`COc1ccc(C(=O)Nc2nc(=O)n([C@@H]3O[C@H](C)[C@@H](O)[C@H]3O)cc2F)cc1` [Example 24]: the inhibition in vivo at 1500 µmol/kg in data set [1] was 63%. Further, the inhibition in vivo at 3000 µmol/kg in data set [1] (3.0 mmole/kg/day × 7, p.o.) was 94%. Moreover, the LD50 in data set [2] was greater than 2000 mg/kg.
As to `O=c1[nH]cc(F)c(=O)[nH]1` [5-fluorouracil], the “major and dose limiting toxicities” value in data set [3] is “cause intestinal toxicities and immunosuppressive toxicities”.
Regarding `C[C@H]1O[C@@H](n2cc(F)c(=O)[nH]c2=O)[C@H](O)[C@@H]1O` [5'-deoxy-5-fluorouridine, reference compound], the “Inhibition of tumor growth” value is recorded as 34% in [4] (0.4 mmole/kg/day × 7), 31% in data set [4] (0.8 mmole/kg/day × 7), 66% in data set [4] (1.5 mmole/kg/day × 7) and “toxic” in data set [4] (3.0 mmole/kg/day × 7). Besides, the diarrhea entry in data set [5] is on record as “diarrhea, which is the dose limiting factor”. Also, the “Therapeutic index (EDmax/ED50), S180” value in [6] is recorded as 2.4. The “Therapeutic index (EDmax/ED50), Meth A” value in data set [7] is 1.1. Besides, in data set [8], the “Therapeutic index (EDmax/ED50), UV 2237” value was 1.6. For the same compound, the “Therapeutic index (toxic dose/ED50): 50% Thymus Shrinkage (C)” value in data set [9] is 5-10. For the same compound, in data set [9], the “Therapeutic index (toxic dose/ED50): 50% reduction No. of bone marrow cells (D)” value is 5-10. Further, the “Therapeutic index (toxic dose/ED50): Max. Dose causing no diarrhea (A)” value in data set [9] stood at 5.
For `CC(C)C(=O)Nc1nc(=O)n([C@@H]2O[C@H](C)[C@@H](O)[C@H]2O)cc1F` [Example 9, 5'-deoxy-5-fluoro-N^4-isobutyrylcytidine], in data set [1], the inhibition in vivo at 1400 µmol/kg was 76% and the inhibition in vivo at 2700 µmol/kg was determined as 96%. This compound also had an LD50 in [2] greater than 2000 mg/kg.
`CCCC(=O)Nc1nc(=O)n([C@@H]2O[C@H](C)[C@@H](O)[C@H]2O)cc1F` [Example 1, N^4-butyryl-5'-deoxy-5-fluorocytidine]: in data set [1], the inhibition in vivo at 1100 µmol/kg was found to be 56% and the inhibition in vivo at 2200 µmol/kg was determined as 83%. Moreover, in data set [10], the inhibition in vivo at 1500 µmol/kg is 50% and the inhibition in vivo at 3000 µmol/kg turned out to be 72%. The “Therapeutic index (EDmax/ED50), S180” value in data set [6] was 2.3. Moreover, in data set [7], the “Therapeutic index (EDmax/ED50), Meth A” value was 2.0. For the same compound, the “Therapeutic index (EDmax/ED50), UV 2237” value in [8] worked out at 4.8. Further, in data set [9], the “Therapeutic index (toxic dose/ED50): 50% Thymus Shrinkage (C)” value was 11.3, the “Therapeutic index (toxic dose/ED50): 50% reduction No. of bone marrow cells (D)” value was 10.7 and the “Therapeutic index (toxic dose/ED50): Max. Dose causing no diarrhea (A)” value is greater than 13. Also, the LD50 in [2] was greater than 2000 mg/kg.
For `C[C@H]1O[C@@H](n2cc(F)c(NC(=O)c3cccnc3)nc2=O)[C@H](O)[C@@H]1O` [Example 34], the inhibition in vivo at 1300 µmol/kg in data set [10] (1.3 mmole/kg/day × 7, p.o.) was determined as 75%. Also, the inhibition in vivo at 2600 µmol/kg in data set [10] (2.6 mmole/kg/day × 7, p.o.) turned out to be 92%. The LD50 in data set [2] was greater than 2000 mg/kg.
On to `CCCCCCCCCCCCCCCC(=O)Nc1nc(=O)n([C@@H]2O[C@H](C)[C@@H](O)[C@H]2O)cc1F` [Example 7, 5'-deoxy-5-fluoro-N^4-hexadecanoylcytidine], for which, in [1], the inhibition in vivo at 1400 µmol/kg amounted to 57% and the inhibition in vivo at 2700 µmol/kg was 84%.
Consider `CCCCC(=O)Nc1nc(=O)n([C@@H]2O[C@H](C)[C@@H](O)[C@H]2O)cc1F` [Example 46, 5'-deoxy-5-fluoro-N^4-valerylcytidine], for which, in data set [10], the inhibition in vivo at 1500 µmol/kg stood at 51% and the inhibition in vivo at 3000 µmol/kg turned out to be 66%. This compound also yielded an LD50 in data set [2] greater than 2000 mg/kg.
As to `CCCCCCCCOC(=O)Nc1nc(=O)n([C@@H]2O[C@H](C)[C@@H](O)[C@H]2O)cc1F` [Example 41, 5'-deoxy-5-fluoro-N^4-(octyloxycarbonyl)cytidine], in data set [1], the inhibition in vivo at 500 µmol/kg was -18% and the inhibition in vivo at 1500 µmol/kg came out at 36%.
In the case of `C[C@H]1O[C@@H](n2cc(F)c(N)nc2=O)[C@H](O)[C@@H]1O` [5'-deoxy-5-fluorocytidine], the “Therapeutic index (EDmax/ED50), S180” value in [6] stood at 2.0. Also, the “Therapeutic index (EDmax/ED50), Meth A” value in data set [7] is given as 1.2. Further, the “Therapeutic index (EDmax/ED50), UV 2237” value in data set [8] came out at 1.0.
In the case of `CC(C)CC(=O)Nc1nc(=O)n([C@@H]2O[C@H](C)[C@@H](O)[C@H]2O)cc1F` [Example 47, 5'-deoxy-5-fluoro-N^4-isovalerylcytidine], in data set [10], the inhibition in vivo at 1500 µmol/kg stood at 29% and the inhibition in vivo at 3000 µmol/kg is 59%. In data set [2], this compound yielded a median lethal dose (LD50) greater than 2000 mg/kg.
For `C[C@H]1O[C@@H](n2cc(F)c(NC(=O)C34CC5CC(CC(C5)C3)C4)nc2=O)[C@H](O)[C@@H]1O` [Example 13, N^4-(1-adamantanecarbonyl)-5'-deoxy-5-fluorocytidine], the inhibition in vivo at 800 µmol/kg in [1] (0.8 mmole/kg/day × 7, p.o.) was determined as 28%. In data set [1], the inhibition in vivo at 1500 µmol/kg was 66%.
On to `COc1cc(C(=O)Nc2nc(=O)n([C@@H]3O[C@H](C)[C@@H](O)[C@H]3O)cc2F)cc(OC)c1OC` [Example 3, 5'-deoxy-5-fluoro-N^4-(3,4,5-trimethoxybenzoyl)cytidine], for which the inhibition in vivo at 1500 µmol/kg in [10] turned out to be 86%. Moreover, the inhibition in vivo at 3000 µmol/kg in data set [10] is 79%. Further, the “Inhibition of tumor growth” value in data set [4] (0.4 mmole/kg/day × 7) is recorded as -27%; in data set [4] (0.8 mmole/kg/day × 7), 20%; in data set [4] (1.5 mmole/kg/day × 7) it was 86%; in data set [4] (3.0 mmole/kg/day × 7) it was 79%. Further, the “antitumor activity compared with 5'-deoxy-5-fluorouridine” value in data set [4] (words) was “more potent in the antitumor activity”. In data set [5], the diarrhea entry is on record as “did not cause diarrhea”. Moreover, in data set [5] (words), the “toxicity compared with 5'-deoxy-5-fluorouridine” value is recorded as “less toxic than 5'-deoxy-5-fluorouridine”.
`C[C@H]1O[C@@H](n2cc(F)c(NC(=O)OCc3ccccc3)nc2=O)[C@H](O)[C@@H]1O` [Example 42, N^4-(benzyloxycarbonyl)-5'-deoxy-5-fluorocytidine]: in [1], the inhibition in vivo at 500 µmol/kg was 0% and the inhibition in vivo at 1500 µmol/kg stood at 36%.
